Measured values as given in patent US20260158017A1, “KIF18A INHIBITOR” (WIGEN BIOMEDICINE TECHNOLOGY (SHANGHAI) CO., LTD., priority 2021, published 2026).

Target: T1, Recombinant human KIF18A (1-467His-tagged) protein (Homo sapiens, UniProt Q8NI77)
T1 construct: Recombinant human KIF18A (1-467His-tagged) protein; His; made in house
Test: KIF18A enzyme assay (microtubule-stimulated ATPase activity, ADP-Glo)
Assay type: biochemical
Conditions: 30 nM KIF18A, 75 μM ATP, 30 μg/mL pig microtubules; read-out: Inhibitory activity against KIF18A IC50
Summary of the method: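 Buffer 15 mM Tris pH 7.5, 10 mM MgCl2, 0.01% Pluronic F-68, 1 μM paclitaxel, 30 μg/mL pig microtubules; reactions at room temperature. IC50 from inhibition relative to DMSO.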

T1 sequence (Q8NI77 1-467): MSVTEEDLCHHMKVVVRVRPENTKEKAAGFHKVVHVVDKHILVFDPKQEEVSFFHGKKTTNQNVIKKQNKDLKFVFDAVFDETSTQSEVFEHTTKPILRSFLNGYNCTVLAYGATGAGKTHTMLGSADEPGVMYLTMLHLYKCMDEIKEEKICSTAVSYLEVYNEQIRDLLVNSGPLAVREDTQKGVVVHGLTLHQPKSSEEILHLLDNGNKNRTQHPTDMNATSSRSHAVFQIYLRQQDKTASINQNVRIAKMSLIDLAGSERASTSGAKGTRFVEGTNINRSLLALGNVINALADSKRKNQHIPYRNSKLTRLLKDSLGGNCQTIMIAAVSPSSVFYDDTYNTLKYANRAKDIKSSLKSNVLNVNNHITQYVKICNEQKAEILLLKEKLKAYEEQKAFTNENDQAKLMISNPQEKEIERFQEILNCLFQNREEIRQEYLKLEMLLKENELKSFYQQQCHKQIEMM
T1 sequence (P02550 whole entry partner): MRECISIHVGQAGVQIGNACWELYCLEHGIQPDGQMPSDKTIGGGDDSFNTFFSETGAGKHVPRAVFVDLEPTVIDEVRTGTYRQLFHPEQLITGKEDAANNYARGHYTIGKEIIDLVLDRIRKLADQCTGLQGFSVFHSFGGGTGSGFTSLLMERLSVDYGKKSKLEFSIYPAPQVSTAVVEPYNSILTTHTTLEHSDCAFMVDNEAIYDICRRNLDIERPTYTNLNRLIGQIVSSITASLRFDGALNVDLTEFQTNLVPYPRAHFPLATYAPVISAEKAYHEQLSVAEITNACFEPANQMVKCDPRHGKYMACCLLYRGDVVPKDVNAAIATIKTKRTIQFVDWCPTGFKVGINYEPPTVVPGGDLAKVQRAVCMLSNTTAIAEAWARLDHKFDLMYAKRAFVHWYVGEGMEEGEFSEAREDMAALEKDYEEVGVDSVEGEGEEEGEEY
T1 sequence (P02554 whole entry partner): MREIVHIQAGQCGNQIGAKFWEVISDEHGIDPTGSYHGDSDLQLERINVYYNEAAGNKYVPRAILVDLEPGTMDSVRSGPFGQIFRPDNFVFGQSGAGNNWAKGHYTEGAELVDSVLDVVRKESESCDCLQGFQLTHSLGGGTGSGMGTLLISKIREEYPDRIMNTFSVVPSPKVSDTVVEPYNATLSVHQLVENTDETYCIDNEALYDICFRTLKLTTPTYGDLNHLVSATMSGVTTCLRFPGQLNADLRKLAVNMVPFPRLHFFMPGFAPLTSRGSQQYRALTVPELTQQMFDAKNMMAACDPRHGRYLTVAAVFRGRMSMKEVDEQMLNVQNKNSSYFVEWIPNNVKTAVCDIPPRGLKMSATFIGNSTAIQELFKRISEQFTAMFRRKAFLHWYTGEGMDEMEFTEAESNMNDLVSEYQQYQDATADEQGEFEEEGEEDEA

| SMILES | IC50 [nM] |
| --- | --- |
| O=C(Nc1ccc(S(=O)(=O)NCCO)cc1N1CCC2(CC1)CC2)c1ccc([N+](=O)[O-])c(N2CCC(F)(F)CC2)n1 [Compound 177] | 100 to 500 |
| C[C@@H]1CN(c2nc(C(=O)Nc3ccc(S(=O)(=O)NCCO)cc3N3CCC4(CC3)CC4)ccc2[N+](=O)[O-])CCO1 [Compound 178] | 100 to 500 |
| C[C@H]1CN(c2nc(C(=O)Nc3ccc(S(=O)(=O)NCCO)cc3N3CCC4(CC3)CC4)ccc2[N+](=O)[O-])CCO1 [Compound 179] | 100 to 500 |
| O=C(Nc1ccc(S(=O)(=O)NCCO)cc1N1CCC2(CC1)CC2)c1ccc([N+](=O)[O-])c(N2CC(F)(F)C2)n1 [Compound 180] | 100 to 500 |
| O=C(Nc1ccc(S(=O)(=O)NCCO)cc1N1CCC2(CC1)CC2)c1ccc([N+](=O)[O-])c(OCCC(F)(F)F)n1 [Compound 181] | 100 to 500 |
| O=C(Nc1ccc(S(=O)(=O)NCCO)cc1N1CCC2(CC1)CC2)c1ccc([N+](=O)[O-])c(N2CCC3(CC3)C2)n1 [Compound 182] | 100 to 500 |
| O=C(Nc1ccc(S(=O)(=O)NCCO)cc1N1CCC2(CC1)CC2)c1ccc([N+](=O)[O-])c(OC2CCC2)n1 [Compound 183] | 100 to 500 |
| CC1(F)CCN(c2nc(C(=O)Nc3ccc(S(=O)(=O)NCCO)cc3N3CCC4(CC3)CC4)ccc2[N+](=O)[O-])C1 (centres unmarked) [Compound 184] | 100 to 500 |
| O=C(Nc1ccc(S(=O)(=O)NCCO)cc1N1CCC2(CC1)CC2)c1ccc([N+](=O)[O-])c(N2CCC(F)CC2)n1 [Compound 185] | 100 to 500 |
| O=C(Nc1ccc(S(=O)(=O)NCCO)cc1N1CCC2(CC1)CC2)c1ccc([N+](=O)[O-])c(N2CC3CC3C2)n1 (centres unmarked) [Compound 186] | 100 to 500 |
| CC(C)(CO)Nc1nc(C(=O)Nc2ccc(S(=O)(=O)NCCO)cc2N2CCC3(CC2)CC3)ccc1[N+](=O)[O-] [Compound 187] | 100 to 500 |
| O=C(Nc1ccc(S(=O)(=O)NCCO)cc1N1CCC2(CC1)CC2)c1ccc([N+](=O)[O-])c(N2CCOCC2)n1 [Compound 188] | 100 to 500 |
| C[C@@H](CO)NS(=O)(=O)c1ccc(NC(=O)c2ccc([N+](=O)[O-])c(N3CCC(F)(F)CC3)n2)c(N2CCC3(CC2)CC3)c1 [Compound 189] | 100 to 500 |
| C[C@H](CO)NS(=O)(=O)c1ccc(NC(=O)c2ccc([N+](=O)[O-])c(N3CCC(F)(F)CC3)n2)c(N2CCC3(CC2)CC3)c1 [Compound 190] | 100 to 500 |
| C[C@@H]1CN(c2nc(C(=O)Nc3ccc(S(=O)(=O)N[C@@H](C)CO)cc3N3CCC4(CC3)CC4)ccc2[N+](=O)[O-])CCO1 [Compound 191] | 100 to 500 |
| C[C@H](CO)NS(=O)(=O)c1ccc(NC(=O)c2ccc([N+](=O)[O-])c(N3CCO[C@H](C)C3)n2)c(N2CCC3(CC2)CC3)c1 [Compound 192] | 100 to 500 |
| CC(C)(CO)Nc1cc(C(=O)Nc2cnc(NS(=O)(=O)CCO)cc2N2CCC3(CC2)CC3)ccc1[N+](=O)[O-] [Compound 203] | ≤ 100 |
| O=C(Nc1cnc(NS(=O)(=O)CCO)cc1N1CCC2(CC1)CC2)c1ccc([N+](=O)[O-])c(N2CCOCC2)c1 [Compound 204] | ≤ 100 |

| SMILES | IC50 [nM] |
| --- | --- |
| C[C@@H](CO)S(=O)(=O)Nc1cc(N2CCC3(CC2)CC3)c(NC(=O)c2ccc([N+](=O)[O-])c(N3CCC(F)(F)CC3)c2)cn1 [Compound 205] | ≤ 100 |
| C[C@H](CO)S(=O)(=O)Nc1cc(N2CCC3(CC2)CC3)c(NC(=O)c2ccc([N+](=O)[O-])c(N3CCC(F)(F)CC3)c2)cn1 [Compound 206] | ≤ 100 |
| C[C@@H]1CN(c2cc(C(=O)Nc3cnc(NS(=O)(=O)[C@@H](C)CO)cc3N3CCC4(CC3)CC4)ccc2[N+](=O)[O-])CCO1 [Compound 207] | ≤ 100 |
| C[C@@H]1CN(c2cc(C(=O)Nc3cnc(NS(=O)(=O)[C@H](C)CO)cc3N3CCC4(CC3)CC4)ccc2[N+](=O)[O-])CCO1 [Compound 208] | ≤ 100 |
| O=C(Nc1cnc(S(=O)(=O)NCCO)cc1N1CCC2(CC1)CC2)c1ccc([N+](=O)[O-])c(N2CCC(F)(F)CC2)c1 [Compound 209] | 100 to 500 |
| C[C@@H]1CN(c2cc(C(=O)Nc3cnc(S(=O)(=O)NCCO)cc3N3CCC4(CC3)CC4)ccc2[N+](=O)[O-])CCO1 [Compound 210] | 100 to 500 |
| C[C@H]1CN(c2cc(C(=O)Nc3cnc(S(=O)(=O)NCCO)cc3N3CCC4(CC3)CC4)ccc2[N+](=O)[O-])CCO1 [Compound 211] | 100 to 500 |
| O=C(Nc1cnc(S(=O)(=O)NCCO)cc1N1CCC2(CC1)CC2)c1ccc([N+](=O)[O-])c(N2CC(F)(F)C2)c1 [Compound 212] | 100 to 500 |
| O=C(Nc1cnc(S(=O)(=O)NCCO)cc1N1CCC2(CC1)CC2)c1ccc([N+](=O)[O-])c(OCCC(F)(F)F)c1 [Compound 213] | 100 to 500 |
| O=C(Nc1cnc(S(=O)(=O)NCCO)cc1N1CCC2(CC1)CC2)c1ccc([N+](=O)[O-])c(N2CCC3(CC3)C2)c1 [Compound 214] | 100 to 500 |
| O=C(Nc1cnc(S(=O)(=O)NCCO)cc1N1CCC2(CC1)CC2)c1ccc([N+](=O)[O-])c(OC2CCC2)c1 [Compound 215] | 100 to 500 |
| CC1(F)CCN(c2cc(C(=O)Nc3cnc(S(=O)(=O)NCCO)cc3N3CCC4(CC3)CC4)ccc2[N+](=O)[O-])C1 (centres unmarked) [Compound 216] | 100 to 500 |
| O=C(Nc1cnc(S(=O)(=O)NCCO)cc1N1CCC2(CC1)CC2)c1ccc([N+](=O)[O-])c(N2CCC(F)CC2)c1 [Compound 217] | 100 to 500 |
| O=C(Nc1cnc(S(=O)(=O)NCCO)cc1N1CCC2(CC1)CC2)c1ccc([N+](=O)[O-])c(N2CC3CC3C2)c1 (centres unmarked) [Compound 218] | 100 to 500 |
| CC(C)(CO)Nc1cc(C(=O)Nc2cnc(S(=O)(=O)NCCO)cc2N2CCC3(CC2)CC3)ccc1[N+](=O)[O-] [Compound 219] | 100 to 500 |
| O=C(Nc1cnc(S(=O)(=O)NCCO)cc1N1CCC2(CC1)CC2)c1ccc([N+](=O)[O-])c(N2CCOCC2)c1 [Compound 220] | 100 to 500 |
| C[C@@H](CO)NS(=O)(=O)c1cc(N2CCC3(CC2)CC3)c(NC(=O)c2ccc([N+](=O)[O-])c(N3CCC(F)(F)CC3)c2)cn1 [Compound 221] | 100 to 500 |
| C[C@H](CO)NS(=O)(=O)c1cc(N2CCC3(CC2)CC3)c(NC(=O)c2ccc([N+](=O)[O-])c(N3CCC(F)(F)CC3)c2)cn1 [Compound 222] | 100 to 500 |

Results, then the compound that gave them:

| IC50 [nM] | SMILES |
| --- | --- |
| ≤ 100 | O=C(Nc1ccc(NS(=O)(=O)CCO)cc1N1CCC2(CC1)CC2)c1ccc([N+](=O)[O-])c(N2CC(F)(F)C2)n1 [Compound 164] |
| ≤ 100 | O=C(Nc1ccc(NS(=O)(=O)CCO)cc1N1CCC2(CC1)CC2)c1ccc([N+](=O)[O-])c(OCCC(F)(F)F)n1 [Compound 165] |
| ≤ 100 | O=C(Nc1ccc(NS(=O)(=O)CCO)cc1N1CCC2(CC1)CC2)c1ccc([N+](=O)[O-])c(N2CCC3(CC3)C2)n1 [Compound 166] |
| ≤ 100 | O=C(Nc1ccc(NS(=O)(=O)CCO)cc1N1CCC2(CC1)CC2)c1ccc([N+](=O)[O-])c(OC2CCC2)n1 [Compound 167] |
| ≤ 100 | CC1(F)CCN(c2nc(C(=O)Nc3ccc(NS(=O)(=O)CCO)cc3N3CCC4(CC3)CC4)ccc2[N+](=O)[O-])C1 (centres unmarked) [Compound 168] |
| ≤ 100 | O=C(Nc1ccc(NS(=O)(=O)CCO)cc1N1CCC2(CC1)CC2)c1ccc([N+](=O)[O-])c(N2CCC(F)CC2)n1 [Compound 169] |
| ≤ 100 | O=C(Nc1ccc(NS(=O)(=O)CCO)cc1N1CCC2(CC1)CC2)c1ccc([N+](=O)[O-])c(N2CC3CC3C2)n1 (centres unmarked) [Compound 170] |
| ≤ 100 | CC(C)(CO)Nc1nc(C(=O)Nc2ccc(NS(=O)(=O)CCO)cc2N2CCC3(CC2)CC3)ccc1[N+](=O)[O-] [Compound 171] |
| ≤ 100 | O=C(Nc1ccc(NS(=O)(=O)CCO)cc1N1CCC2(CC1)CC2)c1ccc([N+](=O)[O-])c(N2CCOCC2)n1 [Compound 172] |
| ≤ 100 | C[C@@H](CO)S(=O)(=O)Nc1ccc(NC(=O)c2ccc([N+](=O)[O-])c(N3CCC(F)(F)CC3)n2)c(N2CCC3(CC2)CC3)c1 [Compound 173] |
| ≤ 100 | C[C@H](CO)S(=O)(=O)Nc1ccc(NC(=O)c2ccc([N+](=O)[O-])c(N3CCC(F)(F)CC3)n2)c(N2CCC3(CC2)CC3)c1 [Compound 174] |
| ≤ 100 | C[C@@H]1CN(c2nc(C(=O)Nc3ccc(NS(=O)(=O)[C@@H](C)CO)cc3N3CCC4(CC3)CC4)ccc2[N+](=O)[O-])CCO1 [Compound 175] |
| ≤ 100 | C[C@@H]1CN(c2nc(C(=O)Nc3ccc(NS(=O)(=O)[C@H](C)CO)cc3N3CCC4(CC3)CC4)ccc2[N+](=O)[O-])CCO1 [Compound 176] |
| ≤ 100 | O=C(Nc1cnc(NS(=O)(=O)CCO)cc1N1CCC2(CC1)CC2)c1ccc([N+](=O)[O-])c(N2CCC(F)(F)CC2)c1 [Compound 193] |
| ≤ 100 | C[C@@H]1CN(c2cc(C(=O)Nc3cnc(NS(=O)(=O)CCO)cc3N3CCC4(CC3)CC4)ccc2[N+](=O)[O-])CCO1 [Compound 194] |
| ≤ 100 | C[C@H]1CN(c2cc(C(=O)Nc3cnc(NS(=O)(=O)CCO)cc3N3CCC4(CC3)CC4)ccc2[N+](=O)[O-])CCO1 [Compound 195] |
| ≤ 100 | O=C(Nc1cnc(NS(=O)(=O)CCO)cc1N1CCC2(CC1)CC2)c1ccc([N+](=O)[O-])c(N2CC(F)(F)C2)c1 [Compound 196] |
| ≤ 100 | O=C(Nc1cnc(NS(=O)(=O)CCO)cc1N1CCC2(CC1)CC2)c1ccc([N+](=O)[O-])c(OCCC(F)(F)F)c1 [Compound 197] |
| ≤ 100 | O=C(Nc1cnc(NS(=O)(=O)CCO)cc1N1CCC2(CC1)CC2)c1ccc([N+](=O)[O-])c(N2CCC3(CC3)C2)c1 [Compound 198] |
| ≤ 100 | O=C(Nc1cnc(NS(=O)(=O)CCO)cc1N1CCC2(CC1)CC2)c1ccc([N+](=O)[O-])c(OC2CCC2)c1 [Compound 199] |
| ≤ 100 | CC1(F)CCN(c2cc(C(=O)Nc3cnc(NS(=O)(=O)CCO)cc3N3CCC4(CC3)CC4)ccc2[N+](=O)[O-])C1 (centres unmarked) [Compound 200] |
| ≤ 100 | O=C(Nc1cnc(NS(=O)(=O)CCO)cc1N1CCC2(CC1)CC2)c1ccc([N+](=O)[O-])c(N2CCC(F)CC2)c1 [Compound 201] |
| ≤ 100 | O=C(Nc1cnc(NS(=O)(=O)CCO)cc1N1CCC2(CC1)CC2)c1ccc([N+](=O)[O-])c(N2CC3CC3C2)c1 (centres unmarked) [Compound 202] |
